According to patent US11952348B1, “4,5-bis(4-bromophenyl)-1-hexyl-2-(4-hydroxy-3-dimethoxyphenyl)-1H-imidazole as an antimicrobial compound” (KING FAISAL UNIVERSITY, priority 2023, dated 2024):

Experiments:
Type in all cases: cell-based
Settings in all cases: after 10, 20, 40 and 60 minutes at all dilutions 1:100, 1:200, 1:400, 1:800
[1] = tested on: Escherichia coli; assay: Antimicrobial screening by agar dilution, Escherichia coli
Procedure: (§1) The antimicrobial properties of the 4,5-bis(4-bromophenyl)-1-hexyl-2-(4-hydroxy-3-dimethoxyphenyl)-1H-imidazole was studied by the method of agar dilution. Test solutions of each compound was prepared in concentration of 1% using dimethylformamide as a solvent then they were diluted in physiological solution to obtain the final experimental dilutions 1: 100, 1:200, 1:400, 1:800. The effect of these substances were compared with furacillin in a controlled study. The testing microbes used were gram positive bacteria Staphylococcus aureus, gram negative bacteria Pseudomonas aeruginosa and Escherichia coli and Candida albicans fungi were taken. The experiments used for this survey were meat-pentonlu agar (EPA) for cultivation of bacteria and Saburo environment for fungi. Each experiment used 1 ml of test solution on each plate 500 min. Add 2 drops of emulsified with microbes feel. All experimental samples were taken from the agar after 10, 20, 40, 60 minutes in the environment on the basis of Patrk planted. Bacteria were cultivated at a temperature of 37° C. for 1 day and the mushroom was kept in a thermostat for […] at a temperature of 28° C. Then results were checked.

[2] = tested on: Pseudomonas aeruginosa; assay: Antimicrobial screening by agar dilution, Pseudomonas aeruginosa
Procedure: as §1

[3] = tested on: Candida albicans; assay: Antimicrobial (antifungal) screening by agar dilution, Candida albicans
Procedure: as §1

[4] = tested on: Staphylococcus aureus; assay: Antimicrobial screening by agar dilution, Staphylococcus aureus
Procedure: as §1

Measured: inhibition activity (summary in words)

CCCCCCn1c(-c2ccc(O)c(OC)c2)nc(-c2ccc(Br)cc2)c1-c1ccc(Br)cc1 [4,5-bis(4-bromophenyl)-1-hexyl-2-(4-hydroxy-3-dimethoxyphenyl)-1H-imidazole]
highest inhibition activity: all assays above
